How the values were obtained:
Format in all cases: physicochemical
[1] = Particle size determination according to Wet Method (Malvern laser diffraction); conditions: dioctyl sulfosuccinate sodium salt in n-hexane
Source text: b) Particle Size Determination According to “Wet Method”. Ezetimibe Samples PSD Measurement by Malvern Laser Diffraction
A Malvern Laser Diffraction instrument was used to characterize the particle size distribution of ezetimibe. A Mastersizer S model equipped with a small cell dispersion unit MSI with a digital dispersion unit controller was used. The measurement was done using range lens 300RF (working range […]), beam length: 2.40 mm and presentation 3NHE. In this case, a solution of dioctyl sulfosuccinate sodium salt in n-hexane was used as a dilution medium. The measurement was started after 1 minute of recirculation after suspension addition into measurement cell at speed rate 2000+−10 rpm. The suspension was prepared of ˜0.1 g sample in solution 0.065% dioctyl sulfosuccinate sodium salt in n-hexane by vortex for 10 seconds and by sonication for 30 seconds. According to the accepted rules of Good Manufacture Procedures, the sample of ezetimibe is preferably measured after a successful blank measurement (% obscuration NMT 0.1%) is performed.

[2] = Particle size determination according to Dry Powder Method (Malvern Master sizer S); conditions: ezetimibe used in Examples 1, 3 and 4, in µm (unit assumed)
Source text: a) Particle Size Determination According to “Dry Powder Method”.
Typical Instrumental Conditions:
Pour the small volume sample in Drypowder Sampler unit. Set the feed rate & air pressure with the help of adjustable knob. And start the measurement until to get the obscuration between 15 and 30. Pass the laser beam through the sample cell to measure the particle size distribution and record the data into a histogram then report the results at 10%, 50% and 90% level of particles size distribution.
Note: Ensure the Laser power should be more than 60%.

[3] = Determination of specific surface area (BET, single point); conditions: BET, single point; Sample no. 1 of example 5b)
Method: The specific surface area is determined by […] using BET calculation.
Specific surface area is measured by using the following Parameters: • Instrument: Pulse Chemisorbs 2700 (micromeritics) • Degassing: With out degassing • Sensitivity: No • Calculations: BET • Type: Single point system • Points: One • Sample cell: 6 cm^3 Procedure: • Sample no. 1 of example 5b) of known weight is taken in the sample transparent U shape glass tube. The sample is […] to remove all atmosphere at liquid nitrogen temperature (−196° C.). This is achieved by passing nitrogen through the sample tube, which is placed in a liquid nitrogen bath (−196° C.). The value divided by the weight of the catalyst/sample taken in the tube gives the surface area of the sample. BET Surface Area: • Surface area determination is an important factor in determining the catalyst performance, a method of assessing the efficiency of the catalyst support and promoter. […]
Is a straight line (in the range of P/P0:0.05-0.3) with slope (C−1)/(VmC) and intercept 1/VmC. By knowing these intercept and slope values calculated and further specific surface area can be calculated as follows Specific surface area (m^2/g)={[Vm×NA]/[22414×Wt]}×Am • Where, • Vm=monolayer volume in ml at STP • NA=Avogadro number • Wt=Weight of the catalyst • Am=mean cross sectional area of adsorbate molecule ([…] for N2

Row | SMILES | d(0.1) [1] | d(0.5) [1] | d(0.9) [1] | d(0.1) [2] | d(0.5) [2] | d(0.9) [2] | Specific surface area [3]
1 | O=C1[C@H](CC[C@H](O)c2ccc(F)cc2)[C@@H](c2ccc(O)cc2)N1c1ccc(F)cc1 [Sample 4] | 2.02 μm | 4.11 μm | 8.21 μm | – | – | – | –
2 | O=C1[C@H](CC[C@H](O)c2ccc(F)cc2)[C@@H](c2ccc(O)cc2)N1c1ccc(F)cc1 [Sample 5] | 2.70 μm | 6.76 μm | 16.47 μm | – | – | – | –
3 | O=C1[C@H](CC[C@H](O)c2ccc(F)cc2)[C@@H](c2ccc(O)cc2)N1c1ccc(F)cc1 [Sample 3 of Example 5a] | – | – | – | 3.349 | 6.356 | 11.429 | –
4 | O=C1[C@H](CC[C@H](O)c2ccc(F)cc2)[C@@H](c2ccc(O)cc2)N1c1ccc(F)cc1 [ezetimibe, 1-(4-fluorophenyl)-3(R)-[3-(4-fluorophenyl)-3(S)-hydroxypropyl]-4(S)-(4-hydroxyphenyl)-2-azetidinone] | – | – | – | – | – | – | 1.24 m^2/gram

— patent US8858994B2, “Pharmaceutical formulation comprising ezetimibe” (Ratiopharm GmbH, priority 2007, dated 2014)
